The text below walks through data of patent US20260083742A1, “HOMOLOGOUS RECOMBINATION REPAIR DEFICIENCY (HRD) AS A PREDICTIVE BIOMARKER FOR TREATING CANCER WITH WEE1 INHIBITORS” (Zeno Management, Inc., priority 2023, published 2026).

The subject of series [1] is SUM149PT TNBC xenograft (BRCA1 splice isoform Δ11q). The series can be described thus: SUM149PT TNBC xenograft tumor growth inhibition. The series is classed as in vivo, mice. On the procedure: SUM149PT is a TNBC xenograft model harboring a BRCA1 splice isoform (Δ11q) that produces a truncated, partially functional protein which thereby promotes PARP inhibitor resistance. Azenosertib monotherapy and its combination with olaparib or AZD5305 was evaluated in the SUM149PT model in vivo in mice (FIGS. 10A-10B), and Table 12 summarizes the groups and treatments. Single agent treatment with olaparib at 100 mg/kg QD (FIG. 10A) or with the PARP1 selective inhibitor, AZD5305, at 0.1 or 1 mg/kg QD (FIG. 10B) confirmed SUM149PT resistance to PARP inhibitors.

Series [2] relates to parental MDA-MB-436 TNBC cell line. The series can be described thus: In vitro activity (IC50) in parental MDA-MB-436. The series is classed as cell-based. The protocol: (§1) Cells with BRCA reversion mutations may be considered HRD+due to genome instability (such as TAI, LST, LOH). BRCA reversion mutation is an established mechanism of resistance to both platinum-based chemotherapeutic drugs and PARP inhibitors. In vivo exploration of WEE1 inhibitors (azenosertib, adavosertib) and PARP inhibitors (niraparib, olaparib) was evaluated.
(§2) MDA-MB-436 PARP inhibitor-resistant lines were generated by long-term in vitro treatment with a PARP inhibitor that is olaparib (Ola^R) or niraparib (Nir^R).

Series [3] concerns MDA-MB-436 Nir^R (BRCA reversion) TNBC cell line. The series can be described thus: In vitro activity (IC50) in niraparib-resistant MDA-MB-436. The format is cell-based. The protocol: as §1, §2
Series [4] deals with MDA-MB-436 Ola^R (BRCA reversion) TNBC cell line. Briefly: In vitro activity (IC50) in olaparib-resistant MDA-MB-436. The series is classed as cell-based. The protocol:
as §1, §2

The nature of series [5]: Body weight loss and clinical observations in ovarian PDX study. The format is in vivo.
Method: Relative Body Weight (RBW), individual body weight and mean body weight loss percent were calculated for each measurement by dividing the body weight by the body weight at the start of treatment as described in Example 3.
Series [6] concerns 22RV1 (prostate cancer cell line) subcutaneous xenografts. The series can be described thus: 22RV1 subcutaneous xenograft tumor growth inhibition. The series is classed as in vivo, CB17 SCID mice. On the procedure: The prostate cancer cell line 22RV1 harbors a BRCA2 pathogenic mutation (HRD+). Briefly, 72 tumor-bearing mice were randomized and assigned into nine groups using a randomized block design based on their tumor volumes with eight mice per group. Each mouse was inoculated subcutaneously at the right flank with 22RV1 tumor cells in 0.2 mL mixture of Matrigel (5×10^6 cells/mouse). Treatments were started when the tumor size reached 199.94 mm^3 for tumor efficacy studies (Day 14 post inoculation). [table] Tumor size was measured twice weekly in two dimensions using caliper and expressed in mm3 using the formula: where a and b were long and short diameters of the tumor. The tumor size was used for calculations of T/C %. The T/C(%) was calculated according to the following formula: Two-way ANOVA followed by Bonferroni post-test was performed to compare tumor volumes among vehicle and other groups.

Series [7] in a line: Body weight loss and clinical observations in TNBC PDX study. To be noted: azenosertib 60 mg/kg and/or niraparib 35 mg/kg p.o., (5 days on, 2 days off) × 4. The protocol: Animals were treated with 60 mg/kg azenosertib or 35 mg/kg niraparib alone or in combination on an intermittent dosing regimen of once a day for 5 days followed by 2 days off (qd x5, 2 days off) for 4 cycles (28 days).
Relative body weight (RBW) is calculated for each measurement by dividing the body weight by the body weight at the start of treatment. Individual body weight loss percent is given by the formula: […]
where BWx is the BW at any day during the treatment and BW0 is the BW on the day of inclusion.
Mean body weight loss percent is given by the formula: […]
where BWx is the mean BW at any day during the treatment and BW0 is the mean BW on the day of inclusion.
Mean relative body weight (RBW) curves were obtained by plotting the mean RBW against time for each experimental group. Delta relative body weights (relative body weights of treated group compared to relative body weights of control group) were used for statistical analysis.

The test system of series [8] is HCC1937 PARP inhibitor-resistant TNBC xenograft. The series can be described thus: HCC1937 TNBC xenograft tumor growth inhibition. To be noted: olaparib 100 mg/kg QD. The format is in vivo, mice. The protocol: Anti-tumor activity of azenosertib monotherapy or in combination with olaparib was evaluated in the HCC1937 model in vivo in mice (FIG. 9), and Table 11 summarizes the groups and treatments. […] Treatment with monotherapy olaparib at 100 mg/kg QD confirmed HCC1937 resistance to the PARP inhibitor.

The mark [9] stands for this setting: parental MDA-MB-436, read-out: In vitro activity (IC50) Wild Type.
The mark [10] stands for this setting: MDA-MB-436 Ola^R, read-out: In vitro activity (IC50) Olaparib^R (BRCA reversion).
Where [11] appears, read: Homo sapiens, parental MDA-MB-436, read-out: In vitro activity (IC50) Wild Type.
Where [12] appears, read: azenosertib 60 mg/kg and/or niraparib 35 mg/kg p.o., (5 days on, 2 days off) × 4.
[13] abbreviates: niraparib 30 mg/kg p.o. qd × 5 3 cycle.
Setting [14] is: Homo sapiens, MDA-MB-436 Ola^R, read-out: In vitro activity (IC50) Olaparib^R (BRCA reversion).
The mark [15] stands for this setting: olaparib 50 mg/kg p.o. qd × 5 3 cycle.

Like-named read-outs stand apart in the source and are kept apart here.

Turning to `CCc1cc2ncc(CN3CCN(c4ccc(C(=O)NC)nc4)CC3)cc2[nH]c1=O` [AZD5305, saruparib], in series [1] (AZD5305 0.1 or 1 mg/kg QD), the “anti-tumor activity of single agent” value is “resistance”.
As a reminder, the IC50 is the midpoint of a concentration-inhibition curve. As for `Cc1cc2ncnn2cc1Nc1ncc2c(n1)n(C1CCOCC1)c(=O)n2C` [AZD7648], the IC50 in series [2] (setting [9]), in series [3] and in series [4] (setting [10]) was more than 10 µM throughout.
As to `NC(=O)c1cccc2cn(-c3ccc([C@@H]4CCCNC4)cc3)nc12` [Niraparib, niraparib], the IC50 in series [2] (setting [11]) was 0.103 µM. Also, in series [5] (setting [12]), the “Max. individual BWL” value was determined as 7.0% and the “Max. mean BWL” value was determined as 1.5%. Moreover, the “tolerability (body weight data and clinical observations)” value in series [5] (azenosertib at 60 mg/kg, niraparib at 35 mg/kg, single agents or in combination) is recorded as “well tolerated”. Besides, in series [6] (setting [13]), the “% TGI Day 5” value is reported as 31.64%, the “% TGI Day 8” value amounted to 18.17%, the “% TGI Day 12” value is listed as 21.99% and the “% TGI Day 15” value is 4.28%. In addition, in series [6] (setting [13]), the “% TGI Day 19” value was −1.28%. The same molecule gave an IC50 in series [3] (Homo sapiens) of 8.65 µM. Besides, the IC50 in series [4] (setting [14]) stood at 7.73 µM. Moreover, in series [7], the “Max. individual BWL” value came to 6.2% and the “Max. mean BWL” value is on record as 3.4%.
In the case of `CN(C)CCCOc1ccc(-c2ccc3ncc4c(c3c2)n(C2CCOCC2)c(=O)n4C)cn1` [AZD0156], the IC50 in series [2] (setting [9]) was 4.98 µM; in series [3], 2.08 µM; in series [4] (setting [10]), 1.99 µM.
For the molecule `O=C(c1cc(Cc2n[nH]c(=O)c3ccccc23)ccc1F)N1CCN(C(=O)C2CC2)CC1` [Olaparib, olaparib], the “anti-tumor activity of single agent” value in series [1] (olaparib 100 mg/kg QD) is “resistance”. Moreover, in series [2] (setting [11]), the IC50 is 0.095 µM. The “anti-tumor activity of monotherapy” value in series [8] was “resistance”. Also, in series [6] (setting [15]), the “% TGI Day 5” value was found to be 33.81%, the “% TGI Day 8” value is 26.80%, the “% TGI Day 12” value is on record as 18.2% and the “% TGI Day 15” value was 5.03%. In series [6] (setting [15]), the “% TGI Day 19” value stood at 14.79%. Moreover, the IC50 in series [3] (Homo sapiens) is more than 10 µM. Besides, the IC50 in series [4] (setting [14]) is more than 10 µM.
As to `C[C@@H]1COCCN1c1cc(C2([S@](C)(=N)=O)CC2)nc(-c2cc[nH]c3nccc2-3)n1` [AZD6738], the IC50 in series [2] (setting [9]) turned out to be 3.67 µM; in series [3], 1.77 µM; in series [4] (setting [10]), 1.84 µM.
For `Cn1cc(-c2cnn3c(N)c(Br)c([C@@H]4CCCNC4)nc23)cn1` [MK8776], the half-maximal inhibitory concentration (IC50) in series [2] (Homo sapiens, MDA-MB-436, read-out: In vitro activity (IC50) Wild Type) was more than 10 µM; in series [4] (Homo sapiens, MDA-MB-436, read-out: In vitro activity (IC50) Olaparib^R (BRCA reversion)), 5.97 µM.
